From patent EP4782449A1, “TRICYCLIC PYRIDINE COMPOUND ACTING AS SARM1 ENZYME ACTIVITY INHIBITOR, AND USE THEREOF” (Artivila (ShenZhen) Innovation Center, Ltd., priority 2023, dated 2025)
Like-named read-outs stand apart in the source and are kept apart here.

What was measured:
[1] = tested on: dorsal root ganglion explants; assay: Axonal Wallerian degeneration assay in mouse DRG explant culture; assay type: cell-based, C57BL/6 male mice; conditions: 10 µM test compound, 2 hours pretreatment, axons transected, images at 0 hour and 24 hours
Text: The experimental method was based on Gerdts J et al. (Gerdts J, Sasaki Y, Vohra B, Marasa J, Milbrandt J. Image-based screening identifies novel roles for IkappaB kinase and glycogen synthase kinase 3 in axonal degeneration. J Biol Chem. 2011 Aug 12;286(32):28011-8).
Dorsal root ganglia were dissected from 2-month-old C57BL/6 male mice and placed in 35 mm culture dishes containing pre-cooled HBSS buffer. Excess tissue from each dorsal root ganglion was removed and cut into 2-3 explants using a scalpel, and the explants were planted in wells of a 96-well plate coated with 100 ng/mL Matrigel (Corning). 100 µL of DRG culture medium (Neurobasal medium (Gibco) containing 2% B-27 (Gibco), 1% GlutaMax (Gibco), and 10 ng/mL NGF (MCE)) was added, then cultured in a 37°C incubator for one week, with medium change on day 4, and experiments were performed on day 8.
0.1 µL of 10 mM test compound was dissolved in 100 µL DRG culture medium to prepare new culture medium containing 10 µM test compound. The culture medium in the 96-well plate was aspirated and new culture medium containing the test compound was added. Then the dorsal root ganglion explants were incubated with the medium in a 37°C incubator for 2 hours for pre-protection. After 2-hour pretreatment, a glass electrode was used to transect axons in the area near the tissue block, and bright-field images of axons in the same area were captured at 0 hour and 24 hours post axonal degeneration using a 20x objective lens of a microscope (Olympus). Axonal integrity was evaluated using an in-house developed script.

SARM1 = target: T1, SARM1 (Homo sapiens, UniProt Q6SZW1); assay: In vitro biochemical assay for inhibiting SARM1 enzyme activity (PC6 fluorescence, NADase); conditions: full-length SARM1 from transfected HEK293 cells, 50 µM NAD, 50 µM PC6, 50 µM NMN activator, room temperature, 30 minutes
T1 construct: inventors produced full-length SARM1 for NAD enzyme activity experiments, and used it for screening; His (C); made in house; host or cells: HEK293 cells, transient transfection; supernatant of digitonin lysate, no further purification described
T1 sequence (Q6SZW1 28-724): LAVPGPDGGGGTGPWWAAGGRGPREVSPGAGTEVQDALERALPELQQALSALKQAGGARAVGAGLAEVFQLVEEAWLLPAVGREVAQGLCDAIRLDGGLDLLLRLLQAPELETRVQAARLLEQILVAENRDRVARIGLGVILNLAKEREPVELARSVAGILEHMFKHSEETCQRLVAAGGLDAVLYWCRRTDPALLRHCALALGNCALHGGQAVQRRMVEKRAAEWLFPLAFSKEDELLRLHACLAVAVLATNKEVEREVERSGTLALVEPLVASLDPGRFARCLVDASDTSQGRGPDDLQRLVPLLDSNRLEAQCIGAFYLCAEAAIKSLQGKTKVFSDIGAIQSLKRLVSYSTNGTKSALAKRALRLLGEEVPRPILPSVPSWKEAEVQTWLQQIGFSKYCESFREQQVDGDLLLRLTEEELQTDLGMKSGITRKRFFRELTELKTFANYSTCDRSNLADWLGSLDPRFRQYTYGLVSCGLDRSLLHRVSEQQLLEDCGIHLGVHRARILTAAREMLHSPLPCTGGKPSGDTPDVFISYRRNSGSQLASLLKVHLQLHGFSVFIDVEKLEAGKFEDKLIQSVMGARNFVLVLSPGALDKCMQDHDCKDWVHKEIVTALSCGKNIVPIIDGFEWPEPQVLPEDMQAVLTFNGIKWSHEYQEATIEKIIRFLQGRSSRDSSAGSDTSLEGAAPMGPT
Experimental: The gene sequence of SARM1 protein was amplified using PCR, and the PCR amplification product was constructed into pcDNA3.1-HIS-C plasmid. The above construction was completed by YouBio(Hunan, China). HEK293 cells were cultured in 10 cm dishes using DMEM, and the cells were transfected with 15 μg pcDNA3.1-SARM[…]-C expression plasmid on the following day. Cells were collected 48 hours after transfection, and SARM1 protein expressed in the cells was obtained by digitonin lysis for in vitro activity assay experiments. The specific procedure was as follows: Cells were digested with trypsin-EDTA, then centrifuged at 1000 rpm for 5 minutes, washed once with PBS, and then resuspended in PBS containing 100 μM digitonin, with 0.6 mL PBS for the cells in per 10 cm dish, and lysed for 5 minutes. […] Then the supernatant containing SARM1 protein was collected by centrifugation at 5000 rpm for 10 minutes. […] A group without inhibitor was used as control group. All mixtures were incubated at room temperature for 10 minutes. Then, 50 μM NAD and 50 μM PC6 as substrates and 50 μM NMN as an activator were added to the SARM1 protein incubated with the inhibitor, and the reaction was carried out at room temperature for 30 minutes. The concentrations of each component were the final concentrations in the reaction system. […] Finally, the reaction rate was used to represent the protein activity and calculate the half-maximal inhibitory concentration.

SMILES | IC50 (SARM1; read-out: IC50) [nM] | Degree of Protection Against Axonal Wallerian Degeneration [1] | IC50 (SARM1) [nM]
O=C(CNc1ccc(F)cc1)Nc1ccc2c(c1)COc1cnccc1-2 [Compound 75] | < 100 | B (partial protection (B): 20% to 50%) | –
O=C(CC1CCc2ccccc21)Nc1ccc2c(c1)COc1cnccc1-2 (centres unmarked) [Compound 76] | 100 to 1000 | A (substantial protection (A) >50%) | –
Fc1ccc(CNC(=S)Nc2ccc3c(c2)COc2cnccc2-3)cc1 [Compound 77, 1-(4-fluorobenzyl)-3-(6H-isochromeno[3,4-c]pyridin-8-yl)thiourea] | – | B (partial protection (B): 20% to 50%) | < 100
O=C(CCc1c(F)c(F)c(F)c(F)c1F)Nc1ccc2c(c1)COc1cnccc1-2 [Compound 80] | < 100 | A (substantial protection (A) >50%) | –
O=C(CCc1ccc(F)c(F)c1)Nc1cnc2c(c1)COc1cnccc1-2 [Compound 87] | < 100 | A (substantial protection (A) >50%) | –
O=C(CCc1cccc(F)c1)Nc1cnc2c(c1)COc1cnccc1-2 [Compound 94] | < 100 | A (substantial protection (A) >50%) | –
O=C(CCc1ccccc1)Nc1cnc2c(c1)COc1cnccc1-2 [Compound 95] | < 100 | B (partial protection (B): 20% to 50%) | –
O=C1C(Cc2ccc(F)cc2)CCN1c1cnc2c(c1)COc1cnccc1-2 (centres unmarked) [Compound 126] | < 100 | A (substantial protection (A) >50%) | –
CN1Cc2cnccc2-c2ccc(NC(=O)CCc3ccc(F)cc3)cc2C1 [Compound 134] | 100 to 1000 | B (partial protection (B): 20% to 50%) | –

More lines, main results first:

IC50 (SARM1; read-out: IC50) [nM] | SMILES | Degree of Protection Against Axonal Wallerian Degeneration [1] | IC50 (SARM1) [nM]
100 to 1000 | COc1ccc(CCC(=O)Nc2ccc3c(c2)COc2cnccc2-3)cc1 [Compound 78] | A (substantial protection (A) >50%) | –
< 100 | O=C(CCc1ccc(Cl)cc1)Nc1cnc2c(c1)COc1cnccc1-2 [Compound 84] | B (partial protection (B): 20% to 50%) | –
< 100 | O=C(CCc1ccc(F)cc1)Nc1cnc2c(c1)COc1cnccc1-2 [Compound 91, 3-(4-fluorophenyl)-N-(5H-pyrano[4,5-b:2,3-c']dipyridin-3-yl)propanamide] | A (substantial protection (A) >50%) | –
< 100 | O=C(CCc1cc(F)cc(F)c1)Nc1cnc2c(c1)COc1cnccc1-2 [Compound 96] | A (substantial protection (A) >50%) | –
< 100 | O=C(NCc1ccc(F)cc1)Nc1cnc2c(c1)COc1cnccc1-2 [Compound 101, 1-(4-fluorobenzyl)-3-(5H-pyrano[4,5-b:2,3-c']dipyridin-3-yl)urea] | A (substantial protection (A) >50%) | –
< 100 | O=C(CCc1ccc(F)cc1)Nc1cc2c(cn1)-c1ccncc1OC2 [Compound 112, 3-(4-fluorophenyl)-N-(5H-pyrano[2,3-c:4,5-c']dipyridin-3-yl)propanamide] | A (substantial protection (A) >50%) | –
< 100 | O=C1C(Cc2ccc(F)cc2)CCN1c1cc2c(cn1)-c1ccncc1OC2 (centres unmarked) [Compound 128] | A (substantial protection (A) >50%) | –
< 100 | Cc1cncc2c1-c1ccc(NC(=O)CCc3ccc(F)cc3)cc1CO2 [Compound 130, 3-(4-fluorophenyl)-N-(1-methyl-6H-isochromeno[3,4-c]pyridin-8-yl)propanamide] | B (partial protection (B): 20% to 50%) | –
100 to 1000 | CN1Cc2cnccc2-c2ccc(N3CCC(Cc4ccc(F)cc4)C3=O)cc2C1 (centres unmarked) [Compound 133] | B (partial protection (B): 20% to 50%) | –
100 to 1000 | O=C(Nc1ccc2c(c1)COc1cnccc1-2)OCc1ccc(F)cc1 [Compound 135] | A (substantial protection (A) >50%) | –
